# Experimental data reported in patent publication US5384309A, “Cyclized peptides and their use as platelet aggregation inhibitors” (Genentech, Inc., priority 1989, dated 1995).
# Read-outs that look alike come from different tables or passages of the source. Positions of bridges follow the written chain, without caps; N, C: chain ends. Non-standard residues stand in square brackets, D forms with d. Residues, ends and D or L forms follow the SMILES beside them. No end group written: not given here.
# Tests used:
# [1] = target: T1, purified human platelet GP llbllla receptor (Homo sapiens, UniProt P05106+P08514); test: biochemical; type: binding; settings: for IC50: ELISA, fibrinogen-coated plates, solubilized GP llbllla, read-out: IC50, inhibition of fibrinogen binding to the GP llbllla platelet receptor
# T1 construct: Platelet GP llbllla was prepared by the method of Fitzgerald, et al; from tissue; host or cells: human platelets
# T1 sequence (P08514 32-887 limits assumed): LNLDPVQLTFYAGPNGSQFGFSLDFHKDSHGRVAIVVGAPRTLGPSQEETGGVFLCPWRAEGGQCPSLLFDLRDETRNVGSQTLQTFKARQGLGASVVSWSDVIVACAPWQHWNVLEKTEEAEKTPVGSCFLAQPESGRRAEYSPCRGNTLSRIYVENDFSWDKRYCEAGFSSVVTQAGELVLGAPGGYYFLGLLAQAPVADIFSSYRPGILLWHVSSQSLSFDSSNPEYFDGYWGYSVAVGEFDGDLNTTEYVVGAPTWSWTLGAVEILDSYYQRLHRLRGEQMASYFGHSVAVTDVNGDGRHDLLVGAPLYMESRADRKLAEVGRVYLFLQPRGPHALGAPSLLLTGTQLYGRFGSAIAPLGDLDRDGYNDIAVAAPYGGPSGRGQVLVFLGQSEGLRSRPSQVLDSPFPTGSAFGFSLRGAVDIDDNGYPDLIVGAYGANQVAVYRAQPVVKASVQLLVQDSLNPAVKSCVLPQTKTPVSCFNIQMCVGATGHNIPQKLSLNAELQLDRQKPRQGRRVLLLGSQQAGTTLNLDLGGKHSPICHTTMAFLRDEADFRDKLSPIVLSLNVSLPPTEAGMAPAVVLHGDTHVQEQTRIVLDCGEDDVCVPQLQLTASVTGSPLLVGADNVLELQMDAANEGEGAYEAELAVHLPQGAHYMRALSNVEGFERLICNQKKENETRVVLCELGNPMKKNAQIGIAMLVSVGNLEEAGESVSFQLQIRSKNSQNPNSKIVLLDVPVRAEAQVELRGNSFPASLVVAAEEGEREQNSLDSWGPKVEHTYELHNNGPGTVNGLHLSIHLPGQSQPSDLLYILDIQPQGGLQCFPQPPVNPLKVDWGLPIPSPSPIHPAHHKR
# T1 sequence (P08514 891-1039 partner limits assumed): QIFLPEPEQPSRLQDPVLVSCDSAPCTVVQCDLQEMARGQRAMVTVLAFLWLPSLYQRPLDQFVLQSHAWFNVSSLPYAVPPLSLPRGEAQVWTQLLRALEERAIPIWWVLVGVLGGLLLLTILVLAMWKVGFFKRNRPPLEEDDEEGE
# T1 sequence (P05106 27-788): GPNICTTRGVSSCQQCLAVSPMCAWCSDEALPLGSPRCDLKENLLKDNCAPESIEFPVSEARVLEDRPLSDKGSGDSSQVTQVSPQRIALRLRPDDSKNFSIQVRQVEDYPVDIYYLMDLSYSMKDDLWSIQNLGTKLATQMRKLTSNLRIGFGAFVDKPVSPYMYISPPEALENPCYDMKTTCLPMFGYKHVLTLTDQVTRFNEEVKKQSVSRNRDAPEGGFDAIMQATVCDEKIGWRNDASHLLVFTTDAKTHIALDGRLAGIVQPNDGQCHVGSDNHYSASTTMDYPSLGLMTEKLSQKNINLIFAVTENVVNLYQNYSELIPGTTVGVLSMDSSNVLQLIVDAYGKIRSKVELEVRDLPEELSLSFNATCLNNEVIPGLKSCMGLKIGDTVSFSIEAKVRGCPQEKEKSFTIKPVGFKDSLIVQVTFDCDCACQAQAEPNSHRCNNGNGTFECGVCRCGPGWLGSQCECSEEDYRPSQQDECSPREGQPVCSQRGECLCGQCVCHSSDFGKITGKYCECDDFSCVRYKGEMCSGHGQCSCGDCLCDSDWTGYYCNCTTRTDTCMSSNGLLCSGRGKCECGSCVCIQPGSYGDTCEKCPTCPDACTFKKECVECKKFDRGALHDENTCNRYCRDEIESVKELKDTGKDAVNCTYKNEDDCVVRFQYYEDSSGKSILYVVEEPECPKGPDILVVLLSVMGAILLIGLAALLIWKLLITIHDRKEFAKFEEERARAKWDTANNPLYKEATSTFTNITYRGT
# Protocol: In-vitro biological activity of the compounds of Formula I was monitored using a modified fibrinogen--GP llbllla ELISA based on the method of Nachman and Leung (J. Clin. Invest. (1982) 69, 263-269) which measures the inhibition of fibrinogen binding to purified human platelet GP llbllla receptor. Human fibrinogen was prepared by the method of Lipinska, et al. (J. Lab. Grin. Med. (1974) 84, 509-516). Platelet GP llbllla was prepared by the method of Fitzgerald, et al. (Anal. Blochem. (1985) 151,169-177.
# Microtiter plates are coated with fibrinogen (10 ug/ml) and then blocked with TACTS buffer containing 0.5% bovine serum albumin (BSA). (TACTS buffer contains 20 mM Tris. HCl, pH 7.5, 0.02% sodium azide, 2 mM calcium chloride, 0.05% Tween 20, 150 mM sodium chloride.) The plate is washed with phosphate buffered saline (PBS) containing 0.01% Tween 20 and the sample to be determined added, followed by addition of solubilized GP llbllla receptor (40 ug/ml) in TACTS, 0.5% BSA. After incubation, the plate is washed and 1 ug/ml of murine anti-platelet monoclonal antibody AP3 (P. J. Newman et al. Blood (1985) 65, 227-232) is added. After another wash a goat anti-mouse IgG conjugated to horseradish peroxidase is added. A final wash is performed and developing reagent buffer (10 mg o-phenylenediamine dihydrochloride, 0.0212% hydrogen peroxide, 0.22 mM citrate, 50 mM phosphate, pH 5.0) is added and then incubated until color develops. The reaction is stopped with 1N sulfuric acid and the absorbance at 492 nm is recorded.
# Microtiter plates are coated with fibrinogen (10 ug/ml) and then blocked with TACTS buffer containing 0.5% BSA. (TACTS buffer contains 20mM Tris. HCl, pH 7.5, 0.02% sodium azide, 2 mM calcium chloride, 0.05% Tween 20, 150 mM sodium chloride.) The plate is washed with phosphate buffered saline containing 0.01% Tween 20 and a dilution of the sample to be determined added, followed by addition of solubilized llbllla receptor (40 ug/ml) in TACTS, 0.5% BSA. After incubation, the plate is washed and murine monoclonal anti-platelet antibody AP3 (1 ug/ml) added. After another wash goat and anti-mouse IgG conjugated to horseradish peroxidase is added. A final wash is performed and developing reagent buffer (10 mg o-phenylenediamine dihydrochloride, 0.0212% hydrogen peroxide, 0.22 mM citrate, 50 mM phosphate, pH 5.0) is added and then incubated until color developed. The reaction is stopped with 1N sulfuric acid and the absorbance at 492 nm is recorded.
# [2] = target: human platelet rich plasma (PRP) platelets (Homo sapiens, UniProt P05106+P08514); test: platelet aggregation inhibition in human platelet rich plasma (ADP induced); type: cell-based; settings: ADP 8 uM
# Sequence of human platelet rich plasma (PRP) platelets (P08514 32-1039): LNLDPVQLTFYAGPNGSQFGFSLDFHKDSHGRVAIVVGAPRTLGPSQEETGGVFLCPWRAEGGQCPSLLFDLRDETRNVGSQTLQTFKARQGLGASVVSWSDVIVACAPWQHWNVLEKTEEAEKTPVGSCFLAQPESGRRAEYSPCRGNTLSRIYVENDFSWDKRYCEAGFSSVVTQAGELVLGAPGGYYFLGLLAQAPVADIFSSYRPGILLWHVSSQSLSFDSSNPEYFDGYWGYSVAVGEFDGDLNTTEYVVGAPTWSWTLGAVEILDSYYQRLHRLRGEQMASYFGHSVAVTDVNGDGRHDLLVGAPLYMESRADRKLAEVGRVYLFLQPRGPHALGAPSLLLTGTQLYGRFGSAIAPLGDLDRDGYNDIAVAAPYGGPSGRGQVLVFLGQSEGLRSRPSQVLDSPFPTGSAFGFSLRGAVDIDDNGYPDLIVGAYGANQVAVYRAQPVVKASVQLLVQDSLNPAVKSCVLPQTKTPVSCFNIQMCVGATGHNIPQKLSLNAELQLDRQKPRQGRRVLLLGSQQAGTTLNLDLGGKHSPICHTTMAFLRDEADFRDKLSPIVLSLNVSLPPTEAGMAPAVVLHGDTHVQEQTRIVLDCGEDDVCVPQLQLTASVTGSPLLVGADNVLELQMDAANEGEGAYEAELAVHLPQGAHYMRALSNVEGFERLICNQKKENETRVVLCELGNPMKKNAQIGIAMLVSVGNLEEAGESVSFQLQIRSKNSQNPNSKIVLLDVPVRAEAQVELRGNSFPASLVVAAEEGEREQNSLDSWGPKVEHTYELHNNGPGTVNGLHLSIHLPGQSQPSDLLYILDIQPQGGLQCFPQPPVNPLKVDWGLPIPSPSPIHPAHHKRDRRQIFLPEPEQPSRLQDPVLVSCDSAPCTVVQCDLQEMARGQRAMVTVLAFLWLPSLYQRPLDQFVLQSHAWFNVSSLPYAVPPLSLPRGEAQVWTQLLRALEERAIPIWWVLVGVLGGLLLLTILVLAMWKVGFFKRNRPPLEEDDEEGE
# Sequence of human platelet rich plasma (PRP) platelets (P05106 27-788): as the sequence (P05106 27-788) above
# Protocol: (§1) In addition to the GP llbllla ELISA assay, platelet aggregation assays may be performed in human platelet rich plasma (PRP). Fifty milliliters of whole human blood (9 parts) is drawn on 3.6% sodium citrate (1 part) from a donor who has not taken aspirin or related medications for at least two weeks. The blood is centrifuged at 160 ×g for 10 min at 220° C. and then allowed to stand for 5 min after which the PRP is decanted. Platelet poor plasma (PPP) is isolated from the remaining blood after centrifugation at 2000×g for 25 min. The platelet count of the PRP was diluted to ca. 300000 per microliter with PPP.
# A 225 uL aliquot of PRP plus 25 uL of either a dilution of the test sample or a control (PBS) is incubated for 5 min in a Chrono-log Whole Blood Aggregometer at 25° C. An aggregatng agent (collagen, 1 ug/ml; U46619, 100 ng/ml; or ADP, 8 uM) is added and the platelet aggregation recorded.
# as §1, with “Fifty” for “In addition to the GP llbllla ELISA assay, platelet aggregation assays may be performed in human platelet rich plasma (PRP). Fifty”, “160×g” for “160 ×g”, “22°” for “220°”
# A 225 uL aliquot of PRP plus 25 uL of either a dilution of the test sample or a control (PBS) is incubated for 5 min in a Chrono-log Whole Blood Aggregometer at 25° C. Adenosine diphosphate (ADP, 8 uM) is added and the platelet aggregation recorded.
# [3] = GP IIbIIIa receptor assay for inhibition of fibrinogen binding, smaller ratio = more active
Ratio of IC50 of test compound to IC50 of Gly-Arg-Gly-Asp-Val [1],Compound,"Ratio of IC50 of test compound to IC50 of Gly-Arg-Gly-Asp-Val [1, 3]",IC50 [2] [nM],other results
> 20,"N=C(N)NCCC[C@H](N)C(=O)NCC(=O)N[C@@H](CC(=O)O)C(=O)N[C@@H](CO)C(=O)O [Arg--Gly--Asp--Ser, reference compound]",,,
3,"CC(C)[C@H](NC(=O)[C@H](CC(=O)O)NC(=O)CNC(=O)[C@@H](N)CCCNC(=N)N)C(=O)O [Arg--Gly--Asp--Val, reference compound] (H-RGDV-OH)",,,
,"N=C(N)NCCC[C@@H]1NC(=O)CNC(=O)CSC[C@@H](C(=O)O)NC(=O)[C@H](CC(=O)O)NC(=O)CNC1=O [Ex. 2, cyclo-S-acetyl-Gly-Arg-Gly-Asp-Cys-OH] ({CH2CO}-GRGDC-OH; thioether N-5)",0.14,8000,
0.14,"N=C(N)NCCC[C@@H]1NC(=O)[C@@H](CC(N)=O)NC(=O)CSC[C@@H](C(=O)O)NC(=O)[C@H](CC(=O)O)NC(=O)CNC1=O [Ex. 5, cyclo-S-acetyl-(dAsn)-Arg--Gly--Asp--Cys--OH] ({CH2CO}-[dN]RGDC-OH; thioether N-5)",,,
0.46,"C[C@@H](O)[C@@H]1NC(=O)CSC[C@@H](C(=O)O)NC(=O)[C@H](CC(=O)O)NC(=O)CNC(=O)[C@H](CCCNC(=N)N)NC1=O [Ex. 6, cyclo-S-acetyl-Thr--Arg--Gly--Asp--Cys--OH] ({CH2CO}-TRGDC-OH; thioether N-5)",,,
,"C[C@H](O)[C@H]1NC(=O)CSC[C@@H](C(=O)O)NC(=O)[C@H](CC(=O)O)NC(=O)CNC(=O)[C@H](CCCNC(=N)N)NC1=O [Ex. 7, Cyclo-S-acetyl-(d-Thr)-Arg-Gly-Asp-Cys-OH] ({CH2CO}-[dT]RGDC-OH; thioether N-5)",0.07,,
,"C[C@H](O)[C@H]1NC(=O)CSC[C@@H](C(=O)O)NC(=O)[C@H](CC(=O)O)NC(=O)CNC(=O)[C@H](CCCN=C(N)N)NC1=O [Ex. 7, Cyclo-S-acetyl-(d-Thr)-Arg-Gly-Asp-Cys-OH] ({CH2CO}-[dT]RGDC-OH; thioether N-5)",,800,
0.5,"C[C@@H]1NC(=O)CSC[C@@H](C(=O)O)NC(=O)[C@H](CC(=O)O)NC(=O)CNC(=O)[C@H](CCCNC(=N)N)NC1=O [Ex. 8, cyclo-S-acetyl-Ala--Arg--Gly--Asp--Cys--OH] ({CH2CO}-ARGDC-OH; thioether N-5)",,,
,"C[C@H]1NC(=O)CSC[C@@H](C(=O)O)NC(=O)[C@H](CC(=O)O)NC(=O)CNC(=O)[C@H](CCCNC(=N)N)NC1=O [Ex. 9, cyclo-S-acetyl-(dAla)-Arg--Gly--Asp--Cys--OH] ({CH2CO}-[dA]RGDC-OH; thioether N-5)",0.13,3000,
0.38,"N=C(N)NCCC[C@@H]1NC(=O)[C@H](Cc2ccc(O)cc2)NC(=O)CSC[C@@H](C(=O)O)NC(=O)[C@H](CC(=O)O)NC(=O)CNC1=O [Ex. 10, cyclo-S-acetyl-Tyr--Arg--Gly--Asp--Cys--OH] ({CH2CO}-YRGDC-OH; thioether N-5)",,,
0.46,"N=C(N)NCCC[C@@H]1NC(=O)[C@@H]2CCCN2C(=O)CSC[C@@H](C(=O)O)NC(=O)[C@H](CC(=O)O)NC(=O)CNC1=O [Ex. 12, cyclo-S-acetyl-Pro--Arg--Gly--Asp--Cys--OH] ({CH2CO}-PRGDC-OH; thioether N-5)",,,
,"N=C(N)NCCC[C@@H]1NC(=O)[C@H]2CCCN2C(=O)CSC[C@@H](C(=O)O)NC(=O)[C@H](CC(=O)O)NC(=O)CNC1=O [Ex. 13, cyclo-S-acetyl-(dPro)-Arg--Gly--Asp--Cys--OH] ({CH2CO}-[dP]RGDC-OH; thioether N-5)",0.05,2000,
,"N=C(N)NCCC[C@@H]1NC(=O)CNC(=O)C(c2ccccc2)SC[C@@H](C(=O)O)NC(=O)[C@H](CC(=O)O)NC(=O)CNC1=O (some centres unmarked) [Ex. 18, cyclo-S-Phenylacetyl-Gly--Arg--Gly--Asp--Cys--OH]",,3000,
,N=C(N)NCCC[C@@H]1NC(=O)CNC(=O)CSC[C@@H](C(=O)O)NC(=O)[C@H](CC(=O)O)NC(=O)CNC1=O [cyclo-S-acetyl-Gly-Arg-Gly-Asp-Cys-OH] ({CH2CO}-GRGDC-OH; thioether N-5),,8500,IC50 [1]: 5 nM
,"GRGDV [Gly--Arg--Gly--Asp--Val, reference compound] [listing 1 of 2 here]",,,IC50 [1]: 20 to 40 nM
,"GRGDV [Gly--Arg--Gly--Asp--Val, reference compound] [listing 2 of 2 here]",1,,
